Results on 12 compounds are retold here after patent US4351949A, “Bicyclic prostaglandin analogs and method of synthesis” (Iowa State University Research Foundation, Inc., priority 1981, dated 1982).

≈ marks a conversion by molar mass, not a printed value. Read-outs that look alike come from different tables or passages of the source.

Assay [1] deals with arachidonic acid induced platelet aggregation. Nature of the assay: in vitro arachidonic acid induced blood platelet aggregation. Type of assay: cell-based. The method, then: The compounds of Examples 1 through 11 were tested against arachidonic acid induced platelet aggregation.
Assay [2] deals with experimental thrombosis. The assay is described as follows: in vivo biolaser model of experimental thrombosis (rabbit ear chamber). The conditions noted are these: combined with anagrelide at a lower than threshold level. The source says: These compounds were studied in vivo in an animal model for experimental thrombosis. The use of this model is described in detail in the reprint, Use of the Biolaser in the Evaluation of Anti-Thrombotic Agents, J. S. Fleming et al. "Platelets and Thrombosis", eds. S. Sherry and A. Scriabrine, University Park Press, 1974, Baltimore, which is incorporated herein by reference.
In brief, a micro-injury is created by a laser beam focused through a microscope onto the endothelium surface of a small blood vessel in a surgically implanted ear chamber of a rabbit. The injury induces the rapid formation of a platelet thrombis which can be measured. […] Prostacyclin is active in the biolaser model when infused intraveneously. The results of these tests preliminarily indicate that there is a super additive interaction between anagrelide and the compounds of this invention. […] To date, no other compounds have undergone significant in vivo analysis in the rabbit ear test.

Assay [3] has as its system experimental thrombosis. The conditions noted are these: cited from earlier work; for inhibition of laser-induced thrombosis by potent inhibitors of platelet aggregation: rabbit ear chamber, general statement on the model.
The mark [4] stands for this setting: concentration of agent necessary to reduce by 50% the in vitro blood platelet aggregation caused by addition of arachidonic acid, read-out: EC 50 vs Arachidonic Acid.
The mark [5] stands for this setting: Platelet, for comparison, vs arachidonic acid, read-out: EC 50 of comparison compounds.

For the compound `CCCCCC(O)C#CC1C2CCC(C2)C1C/C=C/CCCCO` (stereo not drawn) [Example 9], the EC50 in assay [1] (setting [4]) came to 3.6 µg/mL (≈ 10.8 µM). `CCCCCC(O)C#CC1C2C=CC(C2)C1C/C=C/CCCC(=O)OC` (stereo not drawn) [Example 7]: in assay [1] (setting [4]), the EC50 is 3.6 µg/mL (≈ 10 µM).

On to `CCCCCC(O)C#CC1C2CCC(C2)C1C/C=C/CCCC(=O)OC` (stereo not drawn) [Example 2], for which the EC50 in assay [1] (setting [4]) came out at 0.07 µg/mL (≈ 0.194 µM). Also, the “reduction in thrombosis in combination with anagrelide” value in assay [2] is “substantial reduction in thrombosis”. Take `CCCCCC(O)C#CC1C2CCC(C2)C1C/C=C/CCCCCCCC(=O)OC` (stereo not drawn) [Example 4]: in assay [1] (setting [4]), the EC50 is 0.4 µg/mL (≈ 0.96 µM).

As for `CCCCCC(O)C#CC1C2CCC(C2)C1C/C=C/C(=O)OC` (stereo not drawn) [Example 6], the EC50 in assay [1] (setting [4]) came out at 8 µg/mL (≈ 25.1 µM). In the case of `O=C1CN2Cc3c(ccc(Cl)c3Cl)N=C2N1` [anagrelide], the “inhibition of laser-induced thrombosis by potent inhibitors of platelet aggregation” value in assay [3] is “significant inhibition”. `CCCCCC(O)C#CC1C2CCC(C2)C1C/C=C/CCCCCCCC(=O)O` (stereo not drawn) [Example 3]: the EC50 in assay [1] (setting [4]) is 1 µg/mL (≈ 2.48 µM). The same measure, in the same setting: with `CCCCCC(O)C#CC1C2CCC(C2)C1C/C=C/C(=O)O` (stereo not drawn) [Example 5] the figure was 4 µg/mL (≈ 13.1 µM). Take `CCCCC[C@H](O)/C=C/[C@H]1[C@H](O)CC(=O)[C@@H]1CCCCCCC(=O)O` [PGE1, reference compound]: the EC50 in assay [1] (setting [5]) is 0.018 µg/mL (≈ 0.0508 µM).

For `CCCCCC(O)C#CC1C2CCC(CC2)C1C/C=C/CCCC(=O)OC` (stereo not drawn) [Example 8], in assay [1] (setting [4]), the EC50 was 5.8 µg/mL (≈ 15.5 µM). As for `CCCCC[C@H](O)/C=C/[C@@H]1[C@H]2C/C(=C/CCCC(=O)O)O[C@H]2C[C@H]1O` [prostacyclin], the EC50 in assay [1] (setting [5]) stood at 0.004 µg/mL (≈ 0.0113 µM). The “activity in the biolaser model” value in assay [3] (infused intravenously, rabbit) is “active”. For the same compound, the “inhibition of laser-induced thrombosis by potent inhibitors of platelet aggregation” value in assay [3] is “significant inhibition”. With `CCCCCC(O)C#CC1C2CCC(C2)C1C/C=C/CCCC(=O)O` (stereo not drawn) [Example 1], in assay [1] (setting [4]), the EC50 worked out at 0.045 µg/mL (≈ 0.13 µM).
